# Columns and labels:
# Format in all cases: cell-based
# [1] = test system: transcription factor NF-κB in HeLa cell; test: Activation of NF-κB in HeLa cell nucleus by TNF-α and APDC stimulation, FCS readout (Experiment 7-2)
# Experimental: (§1) Two hours after addition of APDC, a tumor necrosis factor TNF-α is added to stimulate HeLa cell for 30 minutes, from which a nucleus extract is prepared. A nucleus extract having a concentration of 5, 10 or 20 μg is prepared. Stimulation on a cell is performed in the following two cases.
# (§2) (I) The case where stimulation with only a tumor necrosis factor TNF-α is performed for 30 minutes. A concentration of a tumor necrosis factor TNF-α is 0, 10, 25 or 50 ng/ml.
# (§3) (II) The case where stimulation with a tumor necrosis factor TNF-α is performed for 30 minutes, two hours after addition of APDC. A concentration of APDC is 10, 100 or 200 μM relative to a 50 ng/ml of a tumor necrosis factor TNF-α.
# [Experiment 7-2] Experiment of a reaction of a (fluorescently labeled) DNA having an […] sequence and a cell nucleus extract. The Experiment was performed using a cell nucleus extract which is extracted under the condition of a different concentration of an added tumor necrosis factor TNF-α and a different concentration of added APDC.
# The following shown in Table 29 are used to perform a binding reaction experiment in the same way as Experiment 3-2.
# [2] = test system: transcription factor AP-1 in HeLa cell; test: Activation of AP-1 in HeLa cell nucleus by TNF-α and APDC stimulation, FCS readout (Experiment 7-1)
# Experimental: as §1, §2, §3
# [Experiment 7-1] Experiment of a reaction of a (fluorescently labeled) DNA having an AP-1-binding sequence and a cell nucleus extract. The Experiment was performed using a cell nucleus extract which is extracted under the condition of a different concentration of an added tumor necrosis factor TNF-α and a different concentration of an added APDC.
# The following shown in Table 28 are used to perform a binding reaction experiment in the same way as Experiment 3-1.
# [3] = test system: transcription factor NF-κB in HeLa cell; test: Activation of NF-κB in HeLa cell nucleus by TNF-α stimulation time, FCS readout (Experiment 6-2); details: 50 ng/ml TNF-α, nucleus extract 20 μg, DNA 30, FIG. 19
# Experimental: (§4) [Experiment 6-2] Experiment of a reaction of a (fluorescently labeled) DNA having an NF-κB-binding sequence and a cell nucleus extract. The Experiment was performed using a cell nucleus extract which is extracted under the condition of a different time length of stimulation with a tumor necrosis factor TNF-α.
# In the same way as Experiment 6-1, 50 ng/ml of a tumor necrosis factor TNF-α was added to HeLa cell, and the HeLa cell was stimulated for 0, 15, 30, 60, 120 or 180 minutes. Then, a nucleus extract was prepared from each HeLa cell.
# The following shown in Table 27 are used to perform a binding reaction experiment in the same way as Experiment 3-2.
# [4] = test system: transcription factor AP-1 in HeLa cell; test: Activation of AP-1 in HeLa cell nucleus by TNF-α stimulation time, FCS readout (Experiment 6-1); details: 50 ng/ml TNF-α, nucleus extract 20 μg, DNA 20, FIG. 18
# Experimental: as §4, with “6-1]” for “6-2]”, “AP-1-binding” for “NF-κB-binding”
# 50 ng/ml of a tumor necrosis factor TNF-α was added to HeLa cell, and the HeLa cell was stimulated for 0, 15, 30, 60, 120 or 180 minutes. Then, a nucleus extract was prepared from each HeLa cell (for preparation method, see Example 3). A concentration of a nucleus extract was set to be 20 μg.
# The following shown in Table 26 are used to perform a binding reaction experiment in the same way as Experiment 3-1.
# [5] = HeLa cell, APDC 10, 100 or 200 μM with 50 ng/ml TNF-α
Molecule,"effect of APDC on activation of transcription factor NF-κB by TNF-α [1, 5]","activation of transcription factor AP-1 in cell nucleus extract ([2]; APDC 100 μM and 200 μM, added 2 hours before 50 ng/ml TNF-α for 30 minutes, FIG. 20)","effect of APDC on activation of transcription factor AP-1 by TNF-α [2, 5]","activation of transcription factor NF-κB in cell nucleus extract ([1]; stimulation with only TNF-α 50 ng/ml for 30 minutes, FIG. 21)",stimulation time giving greatest translational diffusion time (NF-κB sufficiently activated) [3] [min],stimulation time giving greatest translational diffusion time (AP-1 sufficiently activated) [4] [min]
"N.S=C(S)N1CCCC1 [APDC, Ammonium pyrrolidinedithiocarbamate]",suppresses activation of a transcription factor NF-κB by a tumor necrosis factor TNF-α,most activated,promotes activation of a transcription factor AP-1 by a tumor necrosis factor TNF-α,,,
tumor necrosis factor TNF-α,,,,most activated,15,30
